Test results: patent US20260226068A1, “IMIDAZOTRIAZINE IL-17A MODULATORS AND USES THEREOF” (DICE ALPHA, INC., priority 2023, published 2026)

Legend:
[1] = biological target: T1, IL-17A/A (Homo sapiens, UniProt Q16552); assay: IL-17A/A HEK-Blue cell assay (SEAP reporter); type: cell-based; conditions: HEK-Blue IL-17A reporter cells, IL17A/A 5 ng/mL, 20 hours, SEAP read at A630; read-out: HEK-Blue IL17AA (IC50 for IL-17A/A inhibition)
T1 construct: purchased Genscript Z03228
T1 sequence (Q16552 24-155): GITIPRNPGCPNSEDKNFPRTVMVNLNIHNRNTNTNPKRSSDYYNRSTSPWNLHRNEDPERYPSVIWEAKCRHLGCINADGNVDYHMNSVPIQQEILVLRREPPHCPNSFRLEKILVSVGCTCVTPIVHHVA

[2] = Mouse oral bioavailability; type: in vivo; conditions: C57BL/6J mice, PO 10 mg/kg vs IV 1 mg/kg, plasma AUC, read-out: % F (Mouse), oral bioavailability
Procedure: The test compound is administered to C57BL/6J mice intravenously (IV) at 1 mg/kg or orally (PO) at 10 mg/kg using vehicles composed of 10% DMA, 70% Polyethylene glycol 400, and 20% purified water; or 10% DMA, 50% Polyethylene glycol 400, and 40% purified water. Serial blood collections occur at 0.08, 0.25, 0.5, 1, 2, 4, 8 and 24 h post IV bolus dose administration, and 0.25, 0.5, 1, 2, 4, 8 and 24 h post oral dose administration. Blood samples are treated with EDTA anticoagulant. Plasma is isolated by centrifugation and stored at −70° C. until analysis by LC-MS/MS. Test article concentration is determined in plasma and uploaded into the Phoenix WinNonlin system where noncompartmental analysis is used to calculate Area Under the Curve (AUC) for both IV and PO arms. Bioavailability (% F) is calculated via the following equation,
% F=(AUCPO×DoseIV)/(AUCIV×DosePO)×100

[3] = biological target: T2, IL-17A/F (Homo sapiens, UniProt Q16552+Q96PD4); assay: IL-17A/F HEK-Blue cell assay (SEAP reporter); type: cell-based; conditions: HEK-Blue IL-17A reporter cells, IL17A/F 5 ng/mL, 20 hours, SEAP read at A630; read-out: HEK-Blue IL17AF (IC50 for IL-17A/F inhibition)
T2 construct: purchased R&D Systems
T2 sequence (Q16552 24-155): T1 sequence (Q16552 24-155)
T2 sequence (Q96PD4 31-163): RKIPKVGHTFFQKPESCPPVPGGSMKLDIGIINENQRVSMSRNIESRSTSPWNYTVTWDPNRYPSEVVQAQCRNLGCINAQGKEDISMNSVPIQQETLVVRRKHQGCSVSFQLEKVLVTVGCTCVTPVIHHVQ

Structure (SMILES) | IC50 [1] | bioavailability [2] | IC50 [3]
CCn1nccc1C(=O)N[C@H](c1cn2nc(C[C@H]3C[C@@H](C(F)(F)F)CNC3=O)c(C3CCCOC3)nc2n1)[C@@H]1CCCC(F)(F)C1 (single isomer, unassigned) [Compound 69] | < 0.1 µM | 40% | 0.1 to 1 µM
CCn1nccc1C(=O)N[C@H](c1cn2nc(C[C@H]3C[C@@H](C(F)(F)F)CNC3=O)c(C3CCCOC3)nc2n1)[C@H]1CCCC(F)(F)C1 (single isomer, unassigned) [Compound 70] | < 0.1 µM | 45% | < 0.1 µM
CCn1nccc1C(=O)N[C@H](c1cn2nc(CC3C[C@@H](C(F)(F)F)CNC3=O)c(N3CCO[C@H](C)C3)nc2n1)[C@@H]1CCCC(F)(F)C1 (single isomer, unassigned) [Compound 122] | < 0.1 µM | 51% | < 0.1 µM
CCn1nccc1C(=O)N[C@H](c1cn2nc(C[C@H]3C[C@@H](C(F)(F)F)CNC3=O)c(C3CCOC3)nc2n1)[C@H]1CCCC(F)(F)C1 (single isomer, unassigned) [Compound 204] | < 0.1 µM | 27% | 0.1 to 1 µM
CC(C)(C)n1nccc1C(=O)N[C@H](c1cn2nc(C[C@H]3C[C@@H](C(F)(F)F)CNC3=O)c(C3CCOCC3)nc2n1)C1CCC(F)(F)CC1 [Compound 414, 1-(tert-butyl)-N—((S)-(4,4-difluorocyclohexyl)(2-(((3R,5R)-2-oxo-5-(trifluoromethyl)piperidin-3-yl)methyl)-3-(tetrahydro-2H-pyran-4-yl)imidazo[1,2-b][1,2,4]triazin-6-yl)methyl)-1H-pyrazole-5-carboxamide] | < 0.1 µM | – | > 1 µM
CCn1cnnc1C(=O)N[C@H](c1cn2nc(C[C@H]3C[C@@H](C(F)(F)F)CNC3=O)c(C3CCOCC3)nc2n1)C1CCC(F)(F)CC1 [Compound 415] | 0.1 to 1 µM | – | > 1 µM
CCn1nccc1C(=O)N[C@H](c1cn2nc(C[C@H]3C[C@@H](C(F)(F)F)CNC3=O)c(N3CCOC(COC)C3)nc2n1)C1CCC(F)(F)CC1 (stereo partly drawn) [Compound 416, N-((1S)-(4,4-difluorocyclohexyl)(3-(2-(methoxymethyl)morpholino)-2-(((3R,5R)-2-oxo-5-(trifluoromethyl)piperidin-3-yl)methyl)imidazo[1,2-b][1,2,4]triazin-6-yl)methyl)-1-ethyl-1H-pyrazole-5-carboxamide] | < 0.1 µM | – | 0.1 to 1 µM
CCn1nccc1C(=O)N[C@H](c1cn2nc(C[C@H]3C[C@@H](C(F)(F)F)CNC3=O)c(OC(C)C)nc2n1)C1CCC(F)(F)CC1 [Compound 417, N—((S)-(4,4-difluorocyclohexyl)(3-isopropoxy-2-(((3R,5R)-2-oxo-5-(trifluoromethyl)piperidin-3-yl)methyl)imidazo[1,2-b][1,2,4]triazin-6-yl)methyl)-1-ethyl-1H-pyrazole-5-carboxamide] | < 0.1 µM | – | > 1 µM
CCn1ccc(C(=O)N[C@H](c2cn3nc(C[C@H]4C[C@@H](C(F)(F)F)CNC4=O)c(C4CCOCC4)nc3n2)C2CCC(F)(F)CC2)n1 [Compound 418, N—((S)-(4,4-difluorocyclohexyl)(2-(((3R,5R)-2-oxo-5-(trifluoromethyl)piperidin-3-yl)methyl)-3-(tetrahydro-2H-pyran-4-yl)imidazo[1,2-b][1,2,4]triazin-6-yl)methyl)-1-ethyl-1H-pyrazole-3-carboxamide] | < 0.1 µM | – | > 1 µM
O=C(N[C@H](c1cn2nc(C[C@H]3C[C@@H](C(F)(F)F)CNC3=O)c(C3CCOCC3)nc2n1)C1CCC(F)(F)CC1)c1ccnn1C1CC1 [Compound 419] | < 0.1 µM | – | 0.1 to 1 µM
CCn1nccc1C(=O)N[C@H](c1cn2nc(C[C@H]3C[C@@H](C(F)(F)F)CNC3=O)c(N3C[C@H](C)O[C@@H](C)C3)nc2n1)C1CCC(F)(F)CC1 [Compound 420, N—((S)-(4,4-difluorocyclohexyl)(3-((2S,6S)-2,6-dimethylmorpholino)-2-(((3R,5R)-2-oxo-5-(trifluoromethyl)piperidin-3-yl)methyl)imidazo[1,2-b][1,2,4]triazin-6-yl)methyl)-1-ethyl-1H-pyrazole-5-carboxamide] | < 0.1 µM | – | 0.1 to 1 µM
CCc1nonc1C(=O)N[C@H](c1cn2nc(C[C@H]3C[C@@H](C(F)(F)F)CNC3=O)c(N3CCN(CCOC)CC3)nc2n1)C1CCC(F)(F)CC1 [Compound 421, N—((S)-(4,4-difluorocyclohexyl)(3-(4-(2-methoxyethyl)piperazin-1-yl)-2-(((3R,5R)-2-oxo-5-(trifluoromethyl)piperidin-3-yl)methyl)imidazo[1,2-b][1,2,4]triazin-6-yl)methyl)-4-ethyl-1,2,5-oxadiazole-3-carboxamide] | < 0.1 µM | – | > 1 µM
CCn1ncnc1C(=O)N[C@H](c1cn2nc(C[C@H]3C[C@@H](C(F)(F)F)CNC3=O)c(C3CCOCC3)nc2n1)[C@H]1CCCC(F)(F)C1 [Compound 422, N—((S)—((S)-3,3-difluorocyclohexyl)(2-(((3R,5R)-2-oxo-5-(trifluoromethyl)piperidin-3-yl)methyl)-3-(tetrahydro-2H-pyran-4-yl)imidazo[1,2-b][1,2,4]triazin-6-yl)methyl)-1-ethyl-1H-1,2,4-triazole-5-carboxamide] | < 0.1 µM | – | 0.1 to 1 µM
CCn1nccc1C(=O)N[C@H](c1cn2nc(C[C@H]3CC4(CC4)CNC3=O)c(C3CCOCC3)nc2n1)C1CCC(F)(F)CC1 [Compound 423] | < 0.1 µM | – | > 1 µM
CCn1nccc1C(=O)N[C@H](c1cn2nc(C[C@@H]3CC4(CC4)CNC3=O)c(C3CCOCC3)nc2n1)C1CCC(F)(F)CC1 [Compound 424] | < 0.1 µM | – | 0.1 to 1 µM
CCn1nccc1C(=O)N[C@H](c1cn2nc(C[C@@H]3C(=O)NC4CC3C4)c(C3CCOCC3)nc2n1)C1CCC(F)(F)CC1 [Compound 425] | 0.1 to 1 µM | – | > 1 µM
CCn1nccc1C(=O)N[C@H](c1cn2nc(C[C@H]3C(=O)NC4CC3C4)c(C3CCOCC3)nc2n1)C1CCC(F)(F)CC1 [Compound 426] | < 0.1 µM | – | > 1 µM
CCn1nccc1C(=O)N[C@H](c1cn2nc(C[C@@H]3C(=O)NC[C@@H]4C[C@@H]43)c(C3CCOCC3)nc2n1)C1CCC(F)(F)CC1 [Compound 427] | 0.1 to 1 µM | – | > 1 µM
CCn1nccc1C(=O)N[C@H](c1cn2nc(C[C@@H]3C(=O)NC[C@H]4C[C@H]43)c(C3CCOCC3)nc2n1)C1CCC(F)(F)CC1 [Compound 428] | < 0.1 µM | – | > 1 µM
CCn1nccc1C(=O)N[C@H](c1cn2nc(C[C@H]3C(=O)NC[C@H]4C[C@H]43)c(C3CCOCC3)nc2n1)C1CCC(F)(F)CC1 [Compound 429] | 0.1 to 1 µM | – | > 1 µM
O=C(N[C@H](c1cn2nc(C[C@H]3C[C@@H](C(F)(F)F)CNC3=O)c(C3CCOCC3)nc2n1)C1CCC(F)(F)CC1)c1ccnn1CCN1CCCC1C(F)(F)F (stereo partly drawn) [Compound 430, N—((S)-(4,4-difluorocyclohexyl)(2-(((3R,5R)-2-oxo-5-(trifluoromethyl)piperidin-3-yl)methyl)-3-(tetrahydro-2H-pyran-4-yl)imidazo[1,2-b][1,2,4]triazin-6-yl)methyl)-1-(2-(2-(trifluoromethyl)pyrrolidin-1-yl)ethyl)-1H-pyrazole-5-carboxamide] | < 0.1 µM | – | 0.1 to 1 µM
CCn1nccc1C(=O)N[C@H](c1cn2nc(C[C@H]3C[C@@H](C(F)(F)F)CNC3=O)c(N3CCN(C4COC4)CC3)nc2n1)C1CCC(F)(F)CC1 [Compound 433, N—((S)-(4,4-difluorocyclohexyl)(3-(4-(oxetan-3-yl)piperazin-1-yl)-2-(((3R,5R)-2-oxo-5-(trifluoromethyl)piperidin-3-yl)methyl)imidazo[1,2-b][1,2,4]triazin-6-yl)methyl)-1-ethyl-1H-pyrazole-5-carboxamide] | < 0.1 µM | – | 0.1 to 1 µM
CCn1nccc1C(=O)N[C@H](c1cn2nc(CN3C[C@@H](C(F)(F)F)NC3=O)c(C3CCOCC3)nc2n1)C1CCC(F)(F)CC1 [Compound 434] | 0.1 to 1 µM | – | > 1 µM
CCn1nccc1C(=O)N[C@H](c1cn2nc(CN3CC(F)(F)CNC3=O)c(C3CCOCC3)nc2n1)C1CCC(F)(F)CC1 [Compound 435] | 0.1 to 1 µM | – | > 1 µM
CCn1nccc1C(=O)N[C@H](c1cn2nc(CN3C[C@@H](C(F)(F)F)CNC3=O)c(C3CCOCC3)nc2n1)C1CCC(F)(F)CC1 [Compound 436] | 0.1 to 1 µM | – | > 1 µM
CCn1nccc1C(=O)N[C@H](c1cn2nc(CN3C[C@H](C(F)(F)F)CNC3=O)c(C3CCOCC3)nc2n1)C1CCC(F)(F)CC1 [Compound 437] | 0.1 to 1 µM | – | > 1 µM
